Measured values published in US20250360205A1, “NOD1 MODULATORS AND USES THEREOF” (Academia Sinica, priority 2022, published 2025).

Molecular target: T1, NOD1 (Homo sapiens, UniProt Q9Y239)
T1 construct: host or cells: HEK-Blue hNOD1 cells (HEK293-derived, with NF-κB-inducible SEAP reporter)
T1 sequence (Q9Y239 1-953): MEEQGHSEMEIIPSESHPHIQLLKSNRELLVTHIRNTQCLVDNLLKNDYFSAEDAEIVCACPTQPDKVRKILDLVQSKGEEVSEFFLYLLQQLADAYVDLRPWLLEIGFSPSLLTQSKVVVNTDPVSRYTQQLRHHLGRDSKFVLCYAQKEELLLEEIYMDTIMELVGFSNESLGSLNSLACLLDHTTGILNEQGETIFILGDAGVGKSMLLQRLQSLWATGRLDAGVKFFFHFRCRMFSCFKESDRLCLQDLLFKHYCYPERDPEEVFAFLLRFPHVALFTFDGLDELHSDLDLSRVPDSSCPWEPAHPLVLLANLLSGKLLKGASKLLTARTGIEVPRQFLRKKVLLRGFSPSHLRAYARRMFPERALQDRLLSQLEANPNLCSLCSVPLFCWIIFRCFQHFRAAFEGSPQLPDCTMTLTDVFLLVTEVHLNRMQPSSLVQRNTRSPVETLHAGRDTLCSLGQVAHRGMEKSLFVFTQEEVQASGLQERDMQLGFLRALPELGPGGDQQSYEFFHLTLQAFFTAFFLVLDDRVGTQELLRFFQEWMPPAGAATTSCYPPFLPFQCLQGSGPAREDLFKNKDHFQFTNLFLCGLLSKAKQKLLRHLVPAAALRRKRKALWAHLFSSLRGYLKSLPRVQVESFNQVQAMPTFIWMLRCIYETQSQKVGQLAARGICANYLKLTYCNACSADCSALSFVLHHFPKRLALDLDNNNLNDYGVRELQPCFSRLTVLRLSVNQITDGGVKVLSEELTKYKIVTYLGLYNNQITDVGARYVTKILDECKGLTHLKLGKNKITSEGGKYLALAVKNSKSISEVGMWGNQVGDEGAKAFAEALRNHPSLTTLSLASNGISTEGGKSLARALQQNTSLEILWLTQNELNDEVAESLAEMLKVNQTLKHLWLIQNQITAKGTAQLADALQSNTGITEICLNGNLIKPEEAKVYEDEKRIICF
Test: NOD1-induced NF-κB activation assay (SEAP reporter) in HEK-Blue hNOD1 cells
Assay type: cell-based
Conditions: 16 h; for NOD1 stimulation potency (NF-κB activity): 0.1 μM, FIG. 1, relative to iE-DAP, C12-iE-DAP, Tri-DAP
Experimental: Measurement of NOD1-induced NF-κB Activation Assay
HEK-Blue™ hNOD1 Cells (Invivogen; San Diego, CA, U.S.) were cultured in accordance with the manufacturer's instructions. HEK-Blue™ hNOD1 Cells was assayed for NF-κB transcriptional activity changes upon incubation (3.6×10^5 cells/mL) with iE-DAP, C12-iE-DAP, Tri-DAP (Invivogen, San Diego, CA, U.S.) and other NOD1 agonistic compounds (0.1-10 μM) for 16 h. Secreted embryonic alkaline phosphatase (SEAP) activity was determined in the supernatant in accordance with the manufacturer's instructions. An amount of 20 μL of SEAP-inducer compound or negative control was added to 180 μL of cells in HEK-Blue™ detection medium and incubated at 37° C. for 16 h. Absorbance was measured on a SpectraMax M5 (Molecular Devices, Sunnyvale, CA, U.S.) at 640 nm.

Row | Compound | fold increase of NF-κB activity (1 μM, FIGS. 2 and 3) | NOD1 stimulation potency (NF-κB activity)
1 | C[C@H](N)C(=O)N[C@H](CCC(=O)N[C@H](CO)CCC[C@@H](N)C(=O)O)C(=O)O [Compound 6] | 20 fold | –
2 | COc1ccc(CC(=O)NC(C)C(=O)NC(CCC(=O)NC(CO)CCCC(N)C(=O)O)C(=O)O)cc1 (stereo not drawn) [Compound 14f] | – | decreased dramatically
3 | CC(NC(=O)Cc1ccc(-c2ccccc2)cc1)C(=O)NC(CCC(=O)NC(CO)CCCC(N)C(=O)O)C(=O)O (stereo not drawn) [Compound 14h] | – | decreased dramatically
